We go through 1 sequence from patent publication US20250257098A1, “NOVEL SST4 SELECTIVE AGONISTS AS NON-OPIOID ANALGESICS” (KØBENHAVNS UNIVERSITET, priority 2022, published 2025).

The target of assay [1] is T1, human somatostatin receptor SST2 (Homo sapiens, UniProt P30874).
T1 construct: expressed in transfected cells; host or cells: HTLA cells
The assay is classed as cell-based.

Assay [2] has as its system LPS-stimulated mouse macrophages. It counts as cell-based, BALB/c mice.
For assay [3], the system named is model of chronic neuropathic pain (spared nerve injury, SNI). Also noted: species or system C57BL/6NRj mice. The conditions noted are these: mouse, in vivo.
Assay [4] deals with mouse model of post-surgical pain. Also noted: species or system mice. To be noted: in vivo.
In assay [5] the target is T2, human somatostatin receptor SST5 (Homo sapiens, UniProt P35346).
T2 construct: expressed in transfected cells; host or cells: HTLA cells
T2 sequence (P35346 whole entry): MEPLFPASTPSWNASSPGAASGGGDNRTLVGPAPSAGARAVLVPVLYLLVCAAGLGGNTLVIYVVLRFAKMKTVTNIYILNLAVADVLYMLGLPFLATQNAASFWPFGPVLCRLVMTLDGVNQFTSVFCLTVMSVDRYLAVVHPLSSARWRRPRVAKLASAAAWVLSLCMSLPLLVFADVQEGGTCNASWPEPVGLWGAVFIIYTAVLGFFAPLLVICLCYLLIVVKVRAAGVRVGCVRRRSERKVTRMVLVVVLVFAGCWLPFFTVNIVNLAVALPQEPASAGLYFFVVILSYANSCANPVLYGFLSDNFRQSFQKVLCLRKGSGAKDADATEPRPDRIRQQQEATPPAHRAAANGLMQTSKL
The assay is classed as cell-based.

Assay [6] concerns the target T3, human somatostatin receptor SST3 (Homo sapiens, UniProt P32745).
T3 construct: expressed in transfected cells; host or cells: HTLA cells
It counts as cell-based.

Assay [7] deals with T4, human somatostatin receptor SST1 (Homo sapiens, UniProt P30872).
T4 construct: expressed in transfected cells; host or cells: HTLA cells
T4 sequence (P30872 whole entry): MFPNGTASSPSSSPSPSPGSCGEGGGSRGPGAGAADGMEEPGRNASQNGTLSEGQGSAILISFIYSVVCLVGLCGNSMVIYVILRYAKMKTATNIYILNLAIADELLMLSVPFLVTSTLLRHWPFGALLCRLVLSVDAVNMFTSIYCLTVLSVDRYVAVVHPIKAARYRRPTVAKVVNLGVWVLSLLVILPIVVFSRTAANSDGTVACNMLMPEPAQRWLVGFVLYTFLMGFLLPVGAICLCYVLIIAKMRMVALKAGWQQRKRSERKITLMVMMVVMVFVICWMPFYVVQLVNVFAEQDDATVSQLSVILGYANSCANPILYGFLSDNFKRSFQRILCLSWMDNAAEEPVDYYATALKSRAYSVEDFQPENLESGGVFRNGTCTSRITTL
It counts as cell-based.

Assay [8] addresses T5, human somatostatin receptor SST4 (Homo sapiens, UniProt P31391).
T5 construct: expressed in transfected cells; host or cells: HTLA cells
The assay is classed as cell-based.

T5 sequence (P31391 whole entry): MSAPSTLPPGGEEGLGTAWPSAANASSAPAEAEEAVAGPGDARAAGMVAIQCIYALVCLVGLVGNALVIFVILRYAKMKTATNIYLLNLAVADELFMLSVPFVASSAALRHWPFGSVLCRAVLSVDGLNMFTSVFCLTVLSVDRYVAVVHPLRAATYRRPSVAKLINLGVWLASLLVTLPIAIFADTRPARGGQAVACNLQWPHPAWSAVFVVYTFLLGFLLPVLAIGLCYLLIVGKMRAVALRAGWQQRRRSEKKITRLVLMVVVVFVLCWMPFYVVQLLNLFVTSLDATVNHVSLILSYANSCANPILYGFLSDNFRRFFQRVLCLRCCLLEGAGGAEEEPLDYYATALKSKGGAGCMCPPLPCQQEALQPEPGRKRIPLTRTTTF
T1 sequence (P30874 whole entry): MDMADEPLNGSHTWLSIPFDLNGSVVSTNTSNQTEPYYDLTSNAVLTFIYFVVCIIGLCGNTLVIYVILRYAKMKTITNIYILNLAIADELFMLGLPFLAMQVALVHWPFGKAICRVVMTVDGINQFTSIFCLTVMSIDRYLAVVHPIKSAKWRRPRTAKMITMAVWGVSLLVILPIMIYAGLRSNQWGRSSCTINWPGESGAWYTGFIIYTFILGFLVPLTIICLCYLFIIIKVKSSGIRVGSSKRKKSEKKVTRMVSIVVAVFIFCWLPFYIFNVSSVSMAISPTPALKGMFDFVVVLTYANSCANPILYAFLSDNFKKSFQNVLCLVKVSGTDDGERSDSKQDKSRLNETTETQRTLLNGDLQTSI
T3 sequence (P32745 whole entry): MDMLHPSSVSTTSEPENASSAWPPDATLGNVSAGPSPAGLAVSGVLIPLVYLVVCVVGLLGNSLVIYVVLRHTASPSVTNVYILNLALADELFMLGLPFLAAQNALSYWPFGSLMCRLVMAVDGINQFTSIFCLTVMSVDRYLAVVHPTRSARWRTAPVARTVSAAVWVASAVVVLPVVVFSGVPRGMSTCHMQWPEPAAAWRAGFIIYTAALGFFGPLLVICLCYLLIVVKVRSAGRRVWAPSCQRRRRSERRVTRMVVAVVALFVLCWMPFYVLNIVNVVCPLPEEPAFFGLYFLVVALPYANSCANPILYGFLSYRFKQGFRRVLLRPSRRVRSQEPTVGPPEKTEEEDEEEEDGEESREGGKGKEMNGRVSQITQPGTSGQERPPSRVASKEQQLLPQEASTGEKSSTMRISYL

Regarding PVCWKFGCPL [HSH-109, PVCwKFGCOL], the “activation of SST2” value in assay [1] is given as “did not significantly activate”. Further, in assay [2], the “reduction of MCP1 levels” value is ~47% and the “reduction of TNFα levels” value is ~62%. Besides, in assay [3], the “reduction of mechanical hypersensitivity” value was “very robust reduction of mechanical hypersensitivity”. Further, in assay [4], the “area under the curve larger than for Cont-Ro1” value is 39%, the “duration of effect compared with Cont-Ro1” value is “longer lasting”, the “duration of effect versus morphine positive control” value is given as “longer lasting than the morphine positive control” and the “effect level compared with Cont-Ro1” value is on record as “tendency for a higher effect level of HSH-109 over Cont-Ro1”. Also, in assay [4], the expected efficacy result is given as “expected to be fully efficacious” and the reduction of hypersensitivity result is “robust reduction of hypersensitivity”. Moreover, in assay [5], the “activation of SST5” value is listed as “did not significantly activate”. For the same sequence, the “activation of SST3” value in assay [6] is given as “did not significantly activate”. Also, the “apparent potency at SST1” value in assay [7] is on record as “low micromolar range”. Moreover, in assay [8], the “apparent potency at SST4” value is given as “low nanomolar range”, the “potency compared with Cont-Ro1” value was “more potent” and the “selectivity for SST4 compared with Cont-Ro1” value is recorded as “more selective for SST4 than Cont-Ro1”.
